According to patent publication US9328374B2, “Selective culture medium and method for detecting carbapenem-resistant bacteria in a test sample” (Institut National de la Sante et de la Recherche Medicale …, priority 2011, dated 2016):

Tests used:
Experiment in all cases: MIC of imipenem, ertapenem and meropenem
[1] = system: P. stuartii; type: cell-based, Providencia stuartii
[2] = system: E. cloacae; type: cell-based, Enterobacter cloacae
[3] = system: E. coli; type: cell-based, Escherichia coli

SMILES: C[C@@H](O)[C@H]1C(=O)N2C(C(=O)O)=C(SCCN=CN)C[C@H]12 [IPM, imipenem]
- MIC ([1]; P. stuartii NDM (NDM-1 + OXA-1 + CMY-6)): 12 µg/mL
- MIC ([1]; P. stuartii PS1 (NDM-1 + CMY-6 + OXA-1)): 12 µg/mL
- MIC ([1]; P. stuartii PS1, NDM-1 + CMY-6 + OXA-1): 12 µg/mL
- MIC ([1]; strain P. stuartii PS1, NDM-1 + CMY-6 + OXA-1): 12 µg/mL
- MIC ([2]; E. cloacae 501, OXA-48 + TEM-1 + CTX-M-15): 1 µg/mL
- MIC ([2]; E. cloacae 1012, TEM-1 + SHV-12, non-carbapenemase producer): 0.19 µg/mL
- MIC ([2]; E. cloacae 1019, TEM-1, non-carbapenemase producer, overexpressed AmpC): 0.25 µg/mL
- MIC ([2]; E. cloacae 1027, TEM-1 + CTX-M-15, non-carbapenemase producer): 0.19 µg/mL
- MIC ([2]; E. cloacae 1072, TEM-1 + OXA-1, non-carbapenemase producer, overexpressed AmpC): 0.38 µg/mL
- MIC ([2]; E. cloacae 5434 (wild type)): 0.38 µg/mL
- MIC ([2]; E. cloacae 5434, (wild type), non-carbapenemase producer): 0.38 µg/mL
- MIC ([2]; E. cloacae 7725, (wild type), non-carbapenemase producer): 0.19 µg/mL
- MIC ([2]; E. cloacae 7746, (wild type), non-carbapenemase producer): 0.38 µg/mL
- MIC ([2]; E. cloacae 10111 (TEM-1 + CTX-M-15)): 0.5 µg/mL
- MIC ([2]; E. cloacae 10111, TEM-1 + CTX-M-15, non-carbapenemase producer, overexpressed AmpC): 0.5 µg/mL
- MIC ([2]; E. cloacae 1008029, VIM-1+ CTX-M-3): >32 µg/mL
- MIC ([2]; E. cloacae 1008079, IMP-1): 8 µg/mL
- MIC ([2]; E. cloacae 1008187, IMP-1 + CTX-M-15): 8 µg/mL
- MIC ([2]; E. cloacae (KPC-2)): 4 µg/mL
- MIC ([2]; E. cloacae ARF (overexpressed AmpC)): 0.12 µg/mL
- MIC ([2]; E. cloacae ARF, Overexpressed AmpC, non-carbapenemase producer): 0.12 µg/mL
- MIC ([2]; E. cloacae AZA (overexpressed AmpC)): 0.12 µg/mL
- MIC ([2]; E. cloacae AZA, Overexpressed AmpC, non-carbapenemase producer): 0.12 µg/mL
- MIC ([2]; E. cloacae BEU, OXA-48 + TEM-1 + CTX-M-15 + SHV-12): 0.5 µg/mL
- MIC ([2]; E. cloacae BLA (overexpressed AmpC)): 0.12 µg/mL
- MIC ([2]; E. cloacae BLA, Overexpressed AmpC, non-carbapenemase producer): 0.12 µg/mL
- MIC ([2]; E. cloacae CFVL, KPC-2 + TEM-3): 4 µg/mL
- MIC ([2]; E. cloacae CLO (CTX-M-15)): 0.12 µg/mL
- MIC ([2]; E. cloacae CLO, CTX-M-15, non-carbapenemase producer): 0.12 µg/mL
- MIC ([2]; E. cloacae CON (overexpressed AmpC)): 0.12 µg/mL
- MIC ([2]; E. cloacae CON, Overexpressed AmpC, non-carbapenemase producer): 0.25 µg/mL
- MIC ([2]; E. cloacae CVB (VEB-1)): 0.12 µg/mL
- MIC ([2]; E. cloacae CVB, VEB-1, non-carbapenemase producer): 0.12 µg/mL
- MIC ([2]; E. cloacae HMG, KPC-2 + TEM-1): 24 µg/mL
- MIC ([2]; E. cloacae HPTU (KPC-2 + TEM-1 + SHV-11)): 2 µg/mL
- MIC ([2]; E. cloacae HPTU, KPC-2 + TEM-1 + SHV-11): 2 µg/mL
- MIC ([2]; E. cloacae IR38 (NDM-1 + CTX-M-15)): 2 µg/mL
- MIC ([2]; E. cloacae IR38, NDM-1 + CTX-M-15): 2 µg/mL
- MIC ([2]; E. cloacae KAR, VIM-1+ SHV-70): 1 µg/mL
- MIC ([2]; E. cloacae TAW (IMP-8 + SHV-12)): 0.75 µg/mL
- MIC ([2]; E. cloacae TAW, IMP-8 + SHV-12): 0.75 µg/mL
- MIC ([2]; E. cloacae TUR (OXA-48 + SHV-5)): 0.5 µg/mL
- MIC ([2]; E. cloacae TUR, OXA-48 + SHV-5): 0.5 µg/mL
- MIC ([2]; E. cloacae TWA, IMP-8): 1.5 µg/mL
- MIC ([2]; strain E. cloacae 10111, TEM-1 + CTX-M-15, non-carbapenemase producer): 0.5 µg/mL
- MIC ([2]; strain E. cloacae BLA, Overexpressed AmpC, non-carbapenemase producer): 0.12 µg/mL
- MIC ([2]; strain E. cloacae CLO, CTX-M-15, non-carbapenemase producer): 0.12 µg/mL
- MIC ([2]; strain E. cloacae CON, Overexpressed AmpC, non-carbapenemase producer): 0.12 µg/mL
- MIC ([2]; strain E. cloacae CVB, VEB-1, non-carbapenemase producer): 0.12 µg/mL
- MIC ([2]; strain E. cloacae HPTU, KPC-2 + TEM-1 + SHV-11): 2 µg/mL
- MIC ([2]; strain E. cloacae TAW, IMP-8 + SHV-12): 0.75 µg/mL
- MIC ([2]; strain E. cloacae TUR, OXA-48 + SHV-5): 0.5 µg/mL
- MIC ([3]; E. coli 1008 (TEM-1 + CTX-M-1)): 0.19 µg/mL
- MIC ([3]; E. coli 1008, CTX-M-1 + TEM-1, non-carbapenemase producer): 0.19 µg/mL
- MIC ([3]; E. coli 1020, CTX-M-1 + TEM-1, non-carbapenemase producer): 0.19 µg/mL
- MIC ([3]; E. coli 1023, CTX-M-2 + TEM-1, non-carbapenemase producer): 0.12 µg/mL
- MIC ([3]; E. coli 1033, CTX-M-15, non-carbapenemase producer): 0.19 µg/mL
- MIC ([3]; E. coli 1034 (TEM-1 + SHV-38)): 0.19 µg/mL
- MIC ([3]; E. coli 1034, TEM-1 + SHV-38, non-carbapenemase producer): 0.19 µg/mL
- MIC ([3]; E. coli 1048 (TEM-1 + SHV-2a)): 0.19 µg/mL
- MIC ([3]; E. coli 1048, TEM-1 + SHV-2a, non-carbapenemase producer): 0.19 µg/mL
- MIC ([3]; E. coli 1082 (TEM-1)): 0.19 µg/mL
- MIC ([3]; E. coli 1082, TEM-1, non-carbapenemase producer): 0.19 µg/mL
- MIC ([3]; E. coli 1092 (OXA-1)): 0.12 µg/mL
- MIC ([3]; E. coli 1092, OXA-1, non-carbapenemase producer): 0.12 µg/mL
- MIC ([3]; E. coli 6252, (wild type), non-carbapenemase producer): 0.12 µg/mL
- MIC ([3]; E. coli 6367 (wild type)): 0.19 µg/mL
- MIC ([3]; E. coli 6367, (wild type), non-carbapenemase producer): 0.19 µg/mL
- MIC ([3]; E. coli 10121 (CTX-M-2)): 0.19 µg/mL
- MIC ([3]; E. coli 10121, CTX-M-2, non-carbapenemase producer): 0.19 µg/mL
- MIC ([3]; E. coli 10122, CTX-M-1 + TEM-1, non-carbapenemase producer): 0.19 µg/mL
- MIC ([3]; E. coli 0404018, VIM-1+ CMY-6): 3 µg/mL
- MIC ([3]; E. coli 1008077, VIM-1+ TEM-1 + CTX-M-15): >32 µg/mL
- MIC ([3]; E. coli 1108013, IMP-1 + TEM-1): 0.5 µg/mL
- MIC ([3]; E. coli ALL (NDM-1 + OXA-1 + OXA-2 + CTX-M-15 + TEM-1)): 4 µg/mL
- MIC ([3]; E. coli ALL, NDM-1 + TEM-1 + CTX-M-15 + OXA-1 + OXA-2): 4 µg/mL
- MIC ([3]; E. coli AME (OXA-48 + CTX-M-24)): 0.25 µg/mL
- MIC ([3]; E. coli AME, OXA-48 + CTX-M-24): 0.25 µg/mL
- MIC ([3]; E. coli AUS (NDM-1 + CTX-M-15 + TEM-1)): 6 µg/mL
- MIC ([3]; E. coli AUS, NDM-1 + TEM-1 + CTX-M-15): 6 µg/mL
- MIC ([3]; E. coli BER (OXA-48 + CTX-M-15)): 0.38 µg/mL
- MIC ([3]; E. coli BER, OXA-48 + TEM-1 + CTX-M-15): 0.38 µg/mL
- MIC ([3]; E. coli BOK (OXA-48 + CTX-M-15)): 0.25 µg/mL
- MIC ([3]; E. coli BOK, OXA-48 + CTX-M-15): 0.25 µg/mL
- MIC ([3]; E. coli BON (OXA-48 + CTX-M-24 + TEM-1)): 0.38 µg/mL
- MIC ([3]; E. coli BON, OXA-48 + TEM-1 + CTX-M-24): 0.38 µg/mL
- MIC ([3]; E. coli BOU (OXA-48 + CTX-M-15)): 0.5 µg/mL
- MIC ([3]; E. coli BOU, OXA-48 + CTX-M-15): 0.5 µg/mL
- MIC ([3]; E. coli COL (KPC-2)): 4 µg/mL
- MIC ([3]; E. coli COL, KPC-2 + TEM-1 + CTX-M-9): 4 µg/mL
